Data as given in US20150329498A1, “IRAK INHIBITORS AND USES THEREOF” (Nimbus Iris, Inc., priority 2014, published 2015).

How the values were obtained:
[1] = biological target: T1, IRAK4 (Homo sapiens, UniProt Q9NWZ3); experiment: IRAK-4 activity inhibition assay (Caliper); format: biochemical; conditions: 3.5 nM IRAK4, 1.5 μM Peptide 8, 37 μM ATP
T1 construct: purchased CARNA Bioscience 09-145
T1 sequence (Q9NWZ3 1-460): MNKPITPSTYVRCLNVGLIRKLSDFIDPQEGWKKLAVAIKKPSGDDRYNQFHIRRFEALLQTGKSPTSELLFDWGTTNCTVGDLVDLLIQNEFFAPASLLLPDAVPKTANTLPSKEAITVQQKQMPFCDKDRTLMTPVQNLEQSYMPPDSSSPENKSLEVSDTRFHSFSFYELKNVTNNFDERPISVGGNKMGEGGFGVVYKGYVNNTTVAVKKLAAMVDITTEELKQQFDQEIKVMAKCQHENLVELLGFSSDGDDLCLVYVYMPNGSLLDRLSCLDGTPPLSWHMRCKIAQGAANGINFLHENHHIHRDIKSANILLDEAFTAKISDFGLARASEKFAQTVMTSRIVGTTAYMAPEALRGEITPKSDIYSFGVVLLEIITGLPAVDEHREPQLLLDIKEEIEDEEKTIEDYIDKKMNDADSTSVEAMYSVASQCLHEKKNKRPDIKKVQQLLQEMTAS
Experimental: A 1x kinase base buffer was prepared from 50 mM HEPES, pH 7.5 and 0.0015% Brij-35. A stop buffer was prepared from 100 mM HEPES, pH 7.5, 0.015% Brij-35, 0.2% Coating Reagent #3, and 50 mM EDTA.
Test compound was diluted to 50× of the final desired highest inhibitor concentration in reaction by 100% DMSO. 100 ul of this compound dilution was transferred to a well in a 96-well plate. For example, if desired highest inhibitor concentration in IC50 determination is 100 uM, then prepare 5000 uM of compound DMSO solution in this step.
Test compound was serially diluted by transferring 30 μl to 60 μl of 100% DMSO in the next well and so forth for a total of 10 concentrations. 100 μl of 100% DMSO was added to two empty wells for no compound control and no enzyme control in the same 96-well plate.
A new 96-well plate was marked as intermediate plate. 5 μl of compound serial dilution was transferred from source plate to the corresponding wells of the intermediate plate. 45 μl of 1x kinase base buffer (KB buffer) was added to each well of the intermediate plate. The intermediate plate was placed for 10 min on a shaker.
5 μl of each well was transferred from the 96-well intermediate plate to a 384-well plate in duplicates. For example, A1 of the 96-well plate is transferred to A1 and A2 of the 384-well plate. A2 of the 96-well plate is transferred to A3 and A4 of the 384-well plate, and so on.
IRAK4 and DTT in 1x kinase base buffer was added. The 2.5x enzyme mix contained 8.8 nM IRAK4 and 5 mM DTT.
Peptide 8, ATP, MgCl2 and MnCl2 were added in the 1x kinase base buffer. The 2.5x peptide mix contained 3.75 μM peptide 8, 92.5 μM ATP, 12.5 mM MgCl2 and 2.5 mM MnCl2.
Assay plate already contained 5 μl of compound in 10% DMSO. Added 10 μl of 2.5x enzyme solution to each well of the 384-well assay plate, except no enzyme control wells. The final concentration of IRAK4 in reaction was 3.5 nM. Added 10 μl of 1x kinase base buffer to no enzyme control wells in the assay plate. Incubated at room temperature for 10 min.
Added 10 μl of 2.5x peptide solution to each well of the 384-well assay plate. The final concentration of Peptide 8 and ATP was 1.5 μM and 37 μM, respectively. Incubated at for 40 minutes. Added 25 μl of stop buffer to stop reaction. Collected data on Caliper.
Copied conversion % data from Caliper program. Converted conversion % values to percent inhibition values. Percent inhibition=(max−conversion %)/(max−min)*100, where “max” means the conversion % of DMSO control and “min” means the conversion % of no enzyme control.
The compound numbers correspond to the compound numbers in Table 1. Compounds having an activity designated as “A” provided an IC50≦5 μM; compounds having an activity designated as “B” provided an IC50 of 5-20 μM; compounds having an activity designated as “C” provided an IC50 of 20-50 μM; and compounds having an activity designated as “D” provided an IC50≧50 μM. “NA” stands for “not assayed.”

[2] = test system: IL8 production in THP-1 cells; experiment: LPS induced IL8 production assay in THP-1 cells; format: cell-based; conditions: Homo sapiens, 300 ng/mL LPS, measured at 16 hours
Experimental: (§1) Provided compounds were also assayed in an LPS (Lipopolysaccharide) or R848 (TLR-7 agonist) induced cytokine (TNFα and IL8) production assay in THP-1 cells, human white blood cells (hWBC), and human whole blood. The exemplary protocol for this assay in THP-1 cells was as follows below.
(§2) THP-1 cells from ATCC (TIB-202) were cultured in RPMI Medium 1640 (Invitrogen, Cat No. A10491-01), 10% fetal bovine serum (Invitrogen, Cat No. 10099141, Lot No. 8172882) containing 100 U/mL Penicillin, 100 μg/mL streptomycin (Invitrogen, Cat No. 15140-122), and 50 uM 2-Mercaptoethanol (Invitrogen, Cat No. 21985023). LPS-EK ultra pure (Invivogen, Cat No. tlrl-peklps) was used to induce IL8 and TNFα production, that was detected in the cell culture supernatant by IL8 HTRF kit (Cisbio, Cat No. 62IL8PEB) and TNFα HTRF kit (Cisbio, Cat No. 62TNFPEB), as per manufacturer instructions. Cells were cultured in 96 well assay plates at 100,000 cells per well, and compounds diluted in final 0.3% DMSO were pre-incubated with cells for 1 hour prior to stimulation with 300 ng/mL LPS. Cytokine production in cell supernatant was measured at 5 hours for TNFα production, and at 16 hours for IL8 production and assessment of cell viability.
(§3) The compound numbers correspond to the compound numbers in Table 1. Compounds having an activity designated as “A” provided an IC50≦0.5 μM; compounds having an activity designated as “B” provided an IC50 of 0.5-5.0 μM; compounds having an activity designated as “C” provided an IC50>5.0 μM. “NA” stands for “not assayed.”

[3] = test system: TNFα production in THP-1 cells; experiment: LPS induced TNFα production assay in THP-1 cells; format: cell-based; conditions: Homo sapiens, 300 ng/mL LPS, measured at 5 hours
Experimental: as §1, §2, §3

SMILES | IC50 [1] | IC50 [2] | IC50 [3]
OCC#Cc1ccc2ncnc(N[C@H]3CC[C@H](N4CCC5(CC4)CC5)CC3)c2c1 [Compound I-44, 3-(4-(((1r,4r)-4-(6-azaspiro[2.5]octan-6-yl)cyclohexyl)amino)-quinazolin-6-yl)prop-2-yn-1-ol] | ≤ 5000 nM | ≤ 500 nM | ≤ 500 nM
Clc1ccc2ncnc(N[C@H]3CC[C@H](N4CCOCC4)CC3)c2c1 [Compound I-26, 6-chloro-N-((1r,4r)-4-morpholinocyclohexyl)quinazolin-4-amine] | ≤ 5000 nM | ≤ 500 nM | ≤ 500 nM
CN(C)[C@H]1CC[C@H](Nc2ncnc3ccc(CC#N)cc23)CC1 [Compound I-53, 2-(4-(((1r,4r)-4-(dimethylamino)cyclohexyl)amino)quinazolin-6-yl)acetonitrile] | ≤ 5000 nM | ≤ 500 nM | 500 to 5000 nM
CCc1ccc2ncnc(N[C@H]3CC[C@H](N4CCOCC4)CC3)c2c1 [Compound I-15, 6-ethyl-N-((1r,4r)-4-morpholinocyclohexyl)quinazolin-4-amine] | ≤ 5000 nM | ≤ 500 nM | ≤ 500 nM
N#CCc1ccc2ncnc(N[C@H]3CC[C@H](N4CCOCC4)CC3)c2c1 [Compound I-34, 2-(4-(((1r,4r)-4-morpholinocyclohexyl)amino)-quinazolin-6-yl)acetonitrile] | ≤ 5000 nM | ≤ 500 nM | 500 to 5000 nM
N#Cc1ccc2ncnc(N[C@H]3CC[C@H](N4CCC5(CC4)COC5)CC3)c2c1 [Compound I-14, 4-(((1r,4r)-4-(2-oxa-7-azaspiro[3.5]nonan-7-yl)cyclohexyl)amino)-quinazoline-6-carbonitrile] | ≤ 5000 nM | ≤ 500 nM | ≤ 500 nM
Cn1cc(Nc2nc(N[C@H]3CC[C@H](N4CCOCC4)CC3)c3cc(C#N)ccc3n2)cn1 [Compound I-11, 2-((1-methyl-1H-pyrazol-4-yl)amino)-4-(((1r,4r)-4-morpholino-cyclohexyl)amino)quinazoline-6-carbonitrile] | ≤ 5000 nM | ≤ 500 nM | ≤ 500 nM
c1nc(O[C@H]2CC[C@H](N3CCOCC3)CC2)c2c3c(ccc2n1)CCC3 [Compound I-31, 4-((1r,4r)-4-((8,9-dihydro-7H-cyclopenta[f]quinazolin-1-yl)oxy)cyclohexyl)morpholine] | ≤ 5000 nM | ≤ 500 nM | 500 to 5000 nM
Cc1cc(Nc2nc(N[C@H]3CC[C@H](N4CCOCC4)CC3)c3cc(Br)ccc3n2)sn1 [Compound I-56, 6-bromo-N2-(3-methylisothiazol-5-yl)-N4-((1r,4r)-4-morpholin-ocyclohexyl)quinazoline-2,4-diamine] | ≤ 5000 nM | ≤ 500 nM | ≤ 500 nM
c1nc(N[C@H]2CC[C@H](N3CCOCC3)CC2)c2cc(-c3cn[nH]c3)ccc2n1 [Compound I-59, N-((1r,4r)-4-morpholinocyclohexyl)-6-(1H-pyrazol-4-yl)quinazolin-4-amine] | ≤ 5000 nM | ≤ 500 nM | ≤ 500 nM
N#Cc1ccc2nccc(N[C@H]3CC[C@H](N4CCOCC4)CC3)c2c1 [Compound I-47, 4-(((1r,4r)-4-morpholinocyclohexyl)amino)quinoline-6-carbo-nitrile] | ≤ 5000 nM | ≤ 500 nM | 500 to 5000 nM
C=Cc1ccc2ncnc(N[C@H]3CC[C@H](N4CCC5(CC4)CC5)CC3)c2c1 [Compound I-38, N-((1r,4r)-4-(6-azaspiro[2.5]octan-6-yl)cyclohexyl)-6-vinyl-quinazolin-4-amine] | ≤ 5000 nM | ≤ 500 nM | ≤ 500 nM
C#Cc1ccc2ncnc(N[C@H]3CC[C@H](N4CCOCC4)CC3)c2c1 [Compound I-35, 6-ethynyl-N-((1r,4r)-4-morpholinocyclohexyl)quinazolin-4-amine] | ≤ 5000 nM | ≤ 500 nM | 500 to 5000 nM
Cn1cc(Nc2nc(N[C@H]3CC[C@H](N4CCOCC4)CC3)c3cc(Br)ccc3n2)cn1 [Compound I-10, 6-bromo-N2-(1-methyl-1H-pyrazol-4-yl)-N4-((1r,4r)-4-morpholinocyclohexyl)quinazoline-2,4-diamine] | ≤ 5000 nM | ≤ 500 nM | ≤ 500 nM
OCCc1ccc2ncnc(N[C@H]3CC[C@H](N4CCOCC4)CC3)c2c1 [Compound I-40, 2-(4-(((1r,4r)-4-morpholinocyclohexyl)amino)quinazolin-6-yl)ethanol] | ≤ 5000 nM | ≤ 500 nM | 500 to 5000 nM
